This note sets out measurements from PMC11714206, “Massively Parallel Screening of Toll/Interleukin‐1 Receptor (TIR)‐Derived Peptides Reveals Multiple Toll‐Like Receptors (TLRs)‐Targeting Immunomodulatory Peptides” (Advanced Science, 2024).

The target of one assay is T1, MAL^TIR (Homo sapiens, UniProt P58753).
T1 construct: MAL (residues 79–221); 6xHis; made in house; host or cells: E. coli BL21 (DE3)
The assay can be described thus: T‐Surf phage library (P8 and P3) selection against MAL^TIR, four rounds, NGS read counts. Format: binding. The conditions noted are these: for Population: 4th round of selection against MAL TIR, share of NGS reads; for P3_MAL Rank (after) / P3_MAL Rank (before): P3 library. In short, it runs like this: (§1)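 Library of 190 946 TIR‐derived peptides on P8 or P3 was panned on immobilized TIR domain coated at 5 µg mL^−1, BSA‐blocked, 1 h binding at RT, PBS/0.5% Tween‐20 washes, HCl elution, TG1 amplification. Fourth‐round pools were PCR‐barcoded, sequenced (100 bp paired‐end, Phred ≥30), and peptides ranked by read counts.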

Another assay has as its target T2, MyD88^TIR (Homo sapiens, UniProt Q99836).
T2 construct: MyD88 (residues 148–296); 6xHis; made in house; host or cells: E. coli BL21 (DE3)
The assay can be described thus: T‐Surf phage library (P8 and P3) selection against MyD88^TIR, four rounds, NGS read counts. Format: binding. To be noted: for Population: P3_MyD88 pool: P3 T-Surf phage library, 4th round of selection against MyD88 TIR, share of NGS reads; for P3_MyD88 Rank (after) / P3_MyD88 Rank (before): P3 library. In short, it runs like this: as §1

Setting [1] is: P3_MAL pool: P3 T-Surf phage library.
The mark [2] stands for this setting: selection against MAL, rank after grouping.
[3] abbreviates: selection against MAL, rank before grouping.
The mark [4] stands for this setting: selection against MyD88, rank after grouping.
The mark [5] stands for this setting: selection against MyD88, rank before grouping.
Setting [6] is: P3_MAL: rank by count after grouping.
[7] abbreviates: P3_MAL: rank by count before grouping.
Where [8] appears, read: P3_MyD88: rank by count after grouping.
[9] abbreviates: P3_MyD88: rank by count before grouping.
Setting [10] is: 4R selection against MAL, rank after grouping.
The mark [11] stands for this setting: 4R selection against MAL, rank before grouping.
The mark [12] stands for this setting: 4R selection against MyD88, rank after grouping.
Where [13] appears, read: 4R selection against MyD88, rank before grouping.
[14] abbreviates: selection against MyD88 TIR, rank by count after grouping.
Setting [15] is: selection against MyD88 TIR, rank by count before grouping.
Setting [16] is: P8_MAL: rank by count after grouping.
The mark [17] stands for this setting: P8_MAL: rank by count before grouping.

Values joined by “and” are separate entries in the source; they are usually repeats but may differ in a detail not shown here. Equal values may be shown once.

T2 sequence (Q99836 148-296): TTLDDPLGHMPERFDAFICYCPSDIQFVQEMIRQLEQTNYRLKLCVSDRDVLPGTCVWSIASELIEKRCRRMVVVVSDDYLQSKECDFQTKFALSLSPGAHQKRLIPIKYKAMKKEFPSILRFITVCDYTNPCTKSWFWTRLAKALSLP
T1 sequence (P58753 79-221): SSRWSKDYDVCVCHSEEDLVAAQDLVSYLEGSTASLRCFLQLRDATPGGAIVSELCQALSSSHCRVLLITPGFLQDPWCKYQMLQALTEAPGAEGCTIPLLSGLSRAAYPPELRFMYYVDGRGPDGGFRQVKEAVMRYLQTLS

For the sequence SSFREGLWRLLVLSKK, the Population on MAL^TIR (setting [1]) was 0.00338%; on MyD88^TIR, 0.00437%.
Consider NQWRNALTAAANLRL, for which the “P3_MAL Rank (after)” value at MAL^TIR (setting [2]) was 550. In addition, the “P3_MAL Rank (before)” value on MAL^TIR (setting [3]) is listed as 3366. Besides, the “P3_MyD88 Rank (after)” value on MyD88^TIR (setting [4]) stood at 507. In addition, the “P3_MyD88 Rank (before)” value on MyD88^TIR (setting [5]) came out at 3498.
For the sequence DIQRSRFKDDADLVGQ, the “Rank (after)” value at MAL^TIR (setting [6]) worked out at 130; on MyD88^TIR (setting [8]) it was 391. Also, the “Rank (before)” value is 1958 at MAL^TIR (setting [7]) and 2068 on MyD88^TIR (setting [9]).
Consider KEVEGWRDALTKVANLSGW, for which the “P3_MAL Rank (after)” value at MAL^TIR (setting [2]) came to 565. For the same sequence, the “P3_MAL Rank (before)” value at MAL^TIR (setting [3]) is recorded as 3573. Besides, the “P3_MyD88 Rank (after)” value at MyD88^TIR (setting [4]) was determined as 522. Besides, the “P3_MyD88 Rank (before)” value at MyD88^TIR (setting [5]) is given as 3634.
As to YAFTGHLHRYLVQHCE, the “Rank (after)” value came out at 115 at MAL^TIR (setting [6]) and 169 on MyD88^TIR (setting [8]). Moreover, the “Rank (before)” value was 207 at MAL^TIR (setting [7]) and 841 on MyD88^TIR (setting [9]).
As for KEVEGWRDALTKVANLV, the “Rank (after)” value at MAL^TIR (setting [6]) was 134. The “Rank (before)” value on MAL^TIR (setting [7]) stood at 489. At MyD88^TIR, this sequence displayed a Population of 0.00349%.
NQWKLALTKVANLV: the “P3_MAL Rank (after)” value on MAL^TIR (setting [10]) is 638. Besides, the “P3_MAL Rank (before)” value at MAL^TIR (setting [11]) is on record as 3421. The “P3_MyD88 Rank (after)” value on MyD88^TIR (setting [12]) is 579. Further, the “P3_MyD88 Rank (before)” value on MyD88^TIR (setting [13]) was 3536.
As to YTALTNSGFHTFREM, at MAL^TIR (setting [2]), the “P3_MAL Rank (after)” value was 500. Also, at MAL^TIR (setting [3]), the “P3_MAL Rank (before)” value was 1548. At MyD88^TIR (setting [14]), the “P3_MyD88 Rank (after)” value is on record as 213. In addition, at MyD88^TIR (setting [15]), the “P3_MyD88 Rank (before)” value was 1675.
Take YTLLAICMMRCIVIV: the “P3_MAL Rank (after)” value on MAL^TIR (selection against MAL, rank by count after grouping) turned out to be 751. The “P3_MAL Rank (before)” value at MAL^TIR (selection against MAL, rank by count before grouping) was found to be 1535. On MyD88^TIR (selection against MyD88, rank by count after grouping), the “P3_MyD88 Rank (after)” value was determined as 682. For the same sequence, the “P3_MyD88 Rank (before)” value at MyD88^TIR (selection against MyD88, rank by count before grouping) came to 1622.
For the sequence WFYERLVSLILRDTKV, on MAL^TIR (P8_MAL pool: P8 T-Surf phage library), the Population is 0.00432% and 0.00402% and 0.00371% and 0.0034% and 0.00309% and 0.00278%. Moreover, the “P8_MyD88 Rank (after)” value at MyD88^TIR (P8 library, 4R selection against MyD88, rank after grouping) was 615. The “P8_MyD88 Rank (before)” value on MyD88^TIR (P8 library, 4R selection against MyD88, rank before grouping) is on record as 1356.
On to LKVESWRQSREKAGKL, for which, on MAL^TIR (setting [2]), the “P3_MAL Rank (after)” value came to 557. Also, the “P3_MAL Rank (before)” value on MAL^TIR (setting [3]) is given as 2266. The “P3_MyD88 Rank (after)” value on MyD88^TIR (setting [4]) is 512. The “P3_MyD88 Rank (before)” value at MyD88^TIR (setting [5]) came out at 2480.
In the case of KMQKWKDALYEAANLSGW, the Population turned out to be 0.0124% at MAL^TIR (setting [1]) and 0.00437% at MyD88^TIR. Moreover, the “Rank (after)” value at MAL^TIR (setting [6]) was 105. Further, the “Rank (before)” value at MAL^TIR (setting [7]) is on record as 109.
Take RGFLSHLRHHLQAKDH: the “Rank (after)” value at MAL^TIR (setting [16]) is recorded as 107; at MyD88^TIR (P8_MyD88: rank by NGS read count after grouping), 907. Moreover, the “Rank (before)” value came to 654 at MAL^TIR (setting [17]) and 3395 on MyD88^TIR (P8_MyD88: rank by NGS read count before grouping).
ARLPAICIVIWCSVA: the “Rank (after)” value was determined as 106 on MAL^TIR (setting [6]) and 140 at MyD88^TIR (setting [8]). Also, the “Rank (before)” value at MAL^TIR (setting [7]) is reported as 170; on MyD88^TIR (setting [9]) it was 935.
On to LKVESCVRRWKKRAN, for which the “P3_MAL Rank (after)” value on MAL^TIR (selection against MAL TIR, rank by count after grouping) is on record as 213. In addition, the “P3_MAL Rank (before)” value on MAL^TIR (selection against MAL TIR, rank by count before grouping) turned out to be 2293. Moreover, the “P3_MyD88 Rank (after)” value on MyD88^TIR (setting [12]) was determined as 592. On MyD88^TIR (setting [13]), the “P3_MyD88 Rank (before)” value was 2519.
As to NQWRNALTAAANLS, the Population on MAL^TIR (setting [1]) was found to be 0.0162%; on MyD88^TIR it was 0.00553%. For the same sequence, the “Rank (after)” value at MAL^TIR (setting [6]) is listed as 102. The “Rank (before)” value at MAL^TIR (setting [7]) is given as 105.
For YLKWKEALHQFHSWV, the “P3_MAL Rank (after)” value on MAL^TIR (setting [10]) was determined as 662. Besides, the “P3_MAL Rank (before)” value at MAL^TIR (setting [11]) is reported as 1520. The “P3_MyD88 Rank (after)” value on MyD88^TIR (setting [12]) turned out to be 601. On MyD88^TIR (setting [13]), the “P3_MyD88 Rank (before)” value was 1609.
As for KEVEGWRDALTAAANLSGW, the values for the Population on MAL^TIR (setting [1]) and on MyD88^TIR were 0.00376% and 0.00437%, respectively. For the same sequence, the “Rank (after)” value on MAL^TIR (setting [6]) was 112. Also, on MAL^TIR (setting [7]), the “Rank (before)” value was 177.
Turning to YAFTGHLHRYLVQREPAGN, the “Rank (after)” value on MAL^TIR (setting [6]) is 413. The “Rank (before)” value at MAL^TIR (setting [7]) is on record as 1402. Moreover, the “P3_MyD88 Rank (after)” value at MyD88^TIR (setting [14]) is given as 196. Moreover, the “P3_MyD88 Rank (before)” value on MyD88^TIR (setting [15]) was 1511.
With SSFREGPWRLLELSKK, the Population at MAL^TIR (setting [1]) turned out to be 0.00338%; on MyD88^TIR, 0.00466%.
For the sequence LKWGYPWFWDRLRFA, the “Rank (after)” value on MAL^TIR (setting [6]) amounted to 123. In addition, the “Rank (before)” value at MAL^TIR (setting [7]) is 329. Further, the Population on MyD88^TIR is reported as 0.00495%.
Turning to YTALTNSGFHTFRDND, the “Rank (after)” value at MAL^TIR (setting [16]) came to 105. For the same sequence, the “Rank (before)” value at MAL^TIR (setting [17]) is recorded as 584. At MyD88^TIR, this sequence gave a Population of 0.00291%.
On to EWIREGLWRLLELSKK, for which the “Rank (after)” value was 135 at MAL^TIR (setting [6]) and 96 on MyD88^TIR (setting [8]). The entries for the “Rank (before)” value at MAL^TIR (setting [7]) and on MyD88^TIR (setting [9]) were 411 and 361, respectively.
On to YASSSWALDELLRILY, for which the “P8_MAL Rank (after)” value on MAL^TIR (P8 library, selection against MAL TIR, rank by count after grouping) worked out at 227. Also, the “P8_MAL Rank (before)” value at MAL^TIR (P8 library, selection against MAL TIR, rank by count before grouping) is 799. For the same sequence, at MyD88^TIR (setting [4]), the “P3_MyD88 Rank (after)” value is 502. The “P3_MyD88 Rank (before)” value at MyD88^TIR (setting [5]) is listed as 1556.
As to NQWRNALTAAANLNGW, the results for the Population on MAL^TIR (setting [1]) and on MyD88^TIR were 0.00564% and 0.00408%, respectively.
For SSFHEGLWRLLELSKK, in that order: 0.00413% and 0.00466%.
